Test results taken from ChEMBL document CHEMBL5385858, “Identification of novel Pyrrolo[2,3-d]Pyrimidine-based KRAS G12C inhibitors with anticancer effects” (Eur J Med Chem, 2023).
Activity calls are given as the source filed them. The rule behind the calls is not given here.

How the values were obtained:
SOS1-KRAS = SOS1-KRAS (Homo sapiens, UniProt P01116, G12C); assay: Inhibition of KRAS G12C mutant/SOS1 (unknown origin) interaction incubated for 2 hrs in presence of GTP by HTRF assay; type: protein-complex assay
NCI-H358 [1] = assay: Antiproliferative activity against human NCI-H358 cells harboring KRAS G12C mutant assessed as inhibition of cell proliferation incubated for 3 days by CCK8 assay; type: functional, cell-based; details: NCI-H358, 72 h
MIA PaCa-2 = assay: Antiproliferative activity against human MIA PaCa-2 cells harboring KRAS G12C mutant assessed as inhibition of cell proliferation incubated for 3 days by CCK8 assay; type: functional, cell-based; details: MIA PaCa-2, 72 h
NCI-H1975 = assay: Antiproliferative activity against human NCI-H1975 cells harboring wild-type KRAS assessed as inhibition of cell proliferation incubated for 3 days by CCK8 assay; type: functional, cell-based; details: NCI-H1975, 72 h
A549 = assay: Antiproliferative activity against human A549 cells harboring KRAS G12S mutant assessed as inhibition of cell proliferation incubated for 3 days by CCK8 assay; type: functional, cell-based; details: A549, 72 h
NCI-H358 [2] = assay: Antiproliferative activity against human NCI-H358 cells harboring KRAS G12C/Y96D mutant assessed as inhibition of cell proliferation incubated for 48 hrs by CCK8 assay; type: functional, cell-based
NCI-H358 [3] = assay: Induction of apoptosis in human NCI-H358 cells assessed as viable cells at 0.1 uM incubated for 24 hrs by Annexin V-FITC/PI staining based flow cytometry (reference value: 91.4 %); type: functional
NCI-H358 [4] = assay: Induction of apoptosis in human NCI-H358 cells assessed as early apoptotic cells at 0.1 uM incubated for 24 hrs by Annexin V-FITC/PI staining based flow cytometry (reference value: 5.4 %); type: functional
NCI-H358 [5] = assay: Induction of apoptosis in human NCI-H358 cells assessed as late apoptotic cells at 0.1 uM incubated for 24 hrs by Annexin V-FITC/PI staining based flow cytometry (reference value: 1.32 %); type: functional
NCI-H358 [6] = assay: Induction of apoptosis in human NCI-H358 cells assessed as necrotic cells at 0.1 uM incubated for 24 hrs by Annexin V-FITC/PI staining based flow cytometry (reference value: 1.88 %); type: functional
NCI-H358 [7] = assay: Inhibition of cell migration in human NCI-H358 cells at 0.1 uM measured for 48 hrs by wound scratch assay; type: functional, cell-based
NCI-H358 [8] = assay: Inhibition of cell invasion in human NCI-H358 cells measured for 24 hrs by transwell assay; type: functional, cell-based
NCI-H358 [9] = assay: Antitumor activity in human NCI-H358 cells xenografted in BALB/c-nu/nu mouse assessed as tumor growth inhibition at 10 mg/kg, po qd treated for 20 days relative to control; type: functional; details: time 20 day

Chain of SOS1-KRAS (P01116 whole entry G12C, looked up): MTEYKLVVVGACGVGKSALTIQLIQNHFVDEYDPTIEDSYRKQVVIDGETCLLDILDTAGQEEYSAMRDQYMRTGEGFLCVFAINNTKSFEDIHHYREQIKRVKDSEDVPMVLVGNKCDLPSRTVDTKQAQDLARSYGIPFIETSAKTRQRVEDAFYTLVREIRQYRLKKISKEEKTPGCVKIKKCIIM

SMILES | IC50 (SOS1-KRAS) | also measured
C=CC(=O)N1CCN(c2nc(OC[C@@H]3CCCN3C)nc3c2cc(-c2cc(OC)cc4ccccc24)n3C)C[C@@H]1CC#N | > 10 µM | –
C=CC(=O)N1CCN(c2nc(OC[C@H]3CCCN3C)nc3c2cc(-c2cccc4cccc(C)c24)n3C)C[C@@H]1CC#N | 1.94 µM | –
C=CC(=O)N1CCN(c2nc(OC[C@@H]3CCCN3C)nc3c2cc(-c2ccc4[nH]ncc4c2)n3C)C[C@@H]1CC#N | > 10 µM | –
C=CC(=O)N1CCN(c2nc(N3CCN(C)CC3)nc3c2cc(-c2cccc4cccc(C)c24)n3C)C[C@@H]1CC#N | > 10 µM | –
C=CC(=O)N1CCN(c2nc(OC[C@@H]3CCCN3C)nc3c2cc(-c2cccc4cccc(OC)c24)n3C)C[C@@H]1CC#N | > 10 µM | –
C=CC(=O)N1CCN(c2nc(OC[C@@H]3CCCN3C)nc3c2cc(-c2c(C)ccc4c2cnn4C)n3C)C[C@@H]1CC#N | > 10 µM | –
C=CC(=O)N1CCN(c2nc(OC[C@@H]3CCCN3C)nc3c2cc(-c2c(C)ccc4[nH]ncc24)n3C)C[C@@H]1CC#N | > 10 µM | –
C=CC(=O)N1CCN(c2nc(OC[C@@H]3CCCN3C)nc3c2cc(-c2cccc4cccc(C)c24)n3C)C[C@@H]1CC#N | 1.54 µM | –
C=CC(=O)N1CCN(c2nc(OCCN(C(C)C)C(C)C)nc3c2cc(-c2cccc4cccc(C)c24)n3C)C[C@@H]1CC#N | > 10 µM | –
C=CC(=O)N1CCN(c2nc(OC[C@@H]3CCCN3C)nc3c2cc(-c2cc(O)cc4ccccc24)n3C)C[C@@H]1CC#N | 2.04 µM | –
C=CC(=O)N1CCN(c2nc(NCCN(C)C)nc3c2cc(-c2cccc4cccc(C)c24)n3C)C[C@@H]1CC#N | > 10 µM | –
C=C(F)C(=O)N1CCN(c2nc(OC[C@@H]3CCCN3C)nc3c2CCN(c2cccc4cccc(Cl)c24)C3)C[C@@H]1CC#N [ADAGRASIB] | – | IC50 (NCI-H358 [1]): 0.02 µM; IC50 (MIA PaCa-2): 0.05 µM; IC50 (NCI-H1975): 6.37 µM; IC50 (A549): 12.9 µM; inhibition (NCI-H358 [2]): inactive; Activity (NCI-H358 [3]): 79.9%; Activity (NCI-H358 [4]): 14.5%; Activity (NCI-H358 [5]): 4.52%; Activity (NCI-H358 [6]): 1.04%; Activity (NCI-H358 [7]): Active; Activity (NCI-H358 [8]): Dose-Dependent Effect; TGI (NCI-H358 [9]): 69.3%
C=CC(=O)N1CCN(c2nc(OCC34CCCN3CCC4)nc3c2cc(-c2cccc4cccc(C)c24)n3C)C[C@@H]1CC#N | 0.34 µM | –
C=CC(=O)N1CCN(c2nc(N3CCOCC3)nc3c2cc(-c2cccc4cccc(C)c24)n3C)C[C@@H]1CC#N | > 10 µM | –
C=CC(=O)N1CCN(c2nc(OC[C@@H]3CCCN3C)nc3c2cc(-c2cccc4cccc(O)c24)n3C)C[C@@H]1CC#N | 3.24 µM | –
C=CC(=O)N1CCN(c2nc(OCCN(C)C)nc3c2cc(-c2cccc4cccc(C)c24)n3C)C[C@@H]1CC#N | > 10 µM | –
